One series has as its target T1, σ1-receptor (Cavia porcellus, UniProt Q60492).
T1 construct: guinea pig brains were homogenized; from tissue; host or cells: guinea pig brain membranes
The series is described as follows: Sigma-1 receptor binding assay, [3H](+)-pentazocine, brain membranes. Conditions: guinea pig brain membranes; for % Binding σ1 10^−7M: compound at 10^−7 M; for % Binding σ1 10^−7M / % Binding σ1 10^−8M: [3H](+)-pentazocine 0.5 nM; for % Binding σ1 10^−8M: compound at 10^−8 M; for Ki: Sigma-1 receptor, [3H](+)-pentazocine. How it is done:
Brain membrane preparation and binding assays for the σ1-receptor were performed as described (DeHaven-Hudkins et al., 1992) with some modifications. In brief, guinea pig brains were homogenized in 10 vols. (w/v) of Tris-HCl 50 mM 0.32 M sucrose, pH 7.4, with a Kinematica Polytron PT 3000 at 15000 r.p.m. for 30 s. The homogenate was centrifuged at 1000 g for 10 min at 4° C. and the supernatants collected and centrifuged again at 48000 g for 15 min at 4° C. The pellet was resuspended in 10 volumes of Tris-HCl buffer (50 mM, pH 7.4), incubated at 37° C. for 30 min, and centrifuged at 48000 g for 20 min at 4° C. Following this, the pellet was resuspended in fresh Tris-HCl buffer (50 mM, pH 7.4) and stored on ice until use.
Each assay tube contained 10 μL of [^3H](+)-pentazocine (final concentration of 0.5 nM), 900 μL of the tissue suspension to a final assay volume of 1 mL and a final tissue concentration of approximately 30 mg tissue net weight/mL. Non-specific binding was defined by addition of a final concentration of 1 μM haloperidol. All tubes were incubated at 37° C. for 150 min before termination of the reaction by rapid filtration over Schleicher & Schuell GF 3362 glass fibre filters [previously soaked in a solution of 0.5% polyethylenimine for at least 1 h]. Filters were then washed with four times with 4 mL of cold Tris-HCl buffer (50 mM, pH 7.4). Following addition of scintillation cocktail, the samples were allowed to equilibrate overnight. The amount of bound radioactivity was determined by liquid scintillation spectrometry using a Wallac Winspectral 1414 liquid scintillation counter. Protein concentrations were determined by the method of Lowry et al. (1951).

Series [1] relates to capsaicin-induced allodynia. Briefly: Von Frey filaments in a model of capsaicin-induced allodynia. Also on record: dose or concentration left out as unconfirmed. The note with it: mice; capsaicin injected into paw; mechanical stimulus (von Frey). The series is classed as in vivo. As to the method: In-Vivo-Experiments Using Von Frey Filaments in a Model of Capsaicine—Induced Allodynia:
This model is described in detail in the experimental part of WO 2006/010587 A1, examples 1 and 2, the description being included here by reference. Capsaicin is thereby injected into experimental animals to produce acute pain followed by allodynia.
Briefly after habituation mice were first treated with the test-compound (or not in controls). Then capsaicin (1% DMSO) is injected into their paw resulting in developing pain in the effected paw. The effected paw is then treated with a mechanical stimulus and the latency time before the paw is withdrawn is measured.

Structures can show the parent of a compound that is named as a salt.

Results on 14 compounds are retold here after patent US8202872B2, “Pyrazole derivatives as sigma receptor inhibitors” (Laboratorios del Dr. Esteve, S.A., priority 2006, dated 2012).

In general, melting point refers to the temperature, or range, at which the solid turns liquid. Usually Ki stands for a dissociation constant, usually derived from enzyme kinetics or from competition with a known ligand.

T1 sequence (Q60492 whole entry): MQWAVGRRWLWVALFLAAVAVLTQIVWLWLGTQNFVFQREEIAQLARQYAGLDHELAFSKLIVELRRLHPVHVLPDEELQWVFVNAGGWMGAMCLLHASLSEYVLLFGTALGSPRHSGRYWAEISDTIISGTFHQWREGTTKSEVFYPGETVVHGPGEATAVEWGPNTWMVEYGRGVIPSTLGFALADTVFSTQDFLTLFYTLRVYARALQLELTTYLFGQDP

Compound `CC(=O)C1CCN(CCOc2ccn(-c3ccc(Cl)cc3Cl)n2)CC1.O=C(O)C(=O)O` (hydrate or solvate) [Example 7, 1-(1-[2-{1-(2.4-Dichlo-rophenyl)-1H-pyrazol-3-yloxy}ethyl]piperi-din-4-yl)ethanone oxalate] registered a melting point of 137 to 140 °C. Compound `CC(=O)N1CCN(CCOc2nn(-c3ccc(Cl)c(Cl)c3)c(C)c2C)CC1.O=C(O)C(=O)O` (hydrate or solvate) [Example 12, 1-(4-(2-(1-(3,4-Dichlo-rophenyl)-4,5-dimethyl-1H-pyrazol-3-yloxy)ethyl)piperazin-1-yl)ethanone oxalate] showed a melting point of 180 to 184 °C. For `Cc1cc(OCCN2CCC(n3cnc4cccnc43)CC2)nn1-c1ccc(Cl)c(Cl)c1` [Example 1, 3-{1-[2-(1-(3,4-Dichlorophenyl)-5-methyl-1H-pyrazol-3-yloxy)ethyl]piperidin-4-yl}-3H-imidazo[4,5-b]pyridine], the melting point lay within 104 to 107 °C. At σ1-receptor, the “% Binding σ1 10^−7M” value worked out at 94.4% and the “% Binding σ1 10^−8M” value came to 49.4%.

Consider `Cc1cc(OCCN2CCC(N)C2)nn1-c1ccc(Cl)c(Cl)c1` (stereo not drawn) [Example 2, 1-{2-[1-(3,4-Dichlorophenyl)-5-methyl-1H-pyrazol-3-yloxy]ethyl}pyrrolidin-3-amine], for which, at σ1-receptor, the “% Binding σ1 10^−7M” value is 90.7% and the “% Binding σ1 10^−8M” value came out at 53.2%. The like results for `CCOC(=O)N1CCN(CCOc2cc(C)n(-c3ccc(Cl)c(Cl)c3)n2)CC1` [Example 3, Ethyl 4-{2-[1-(3,4-dichlorophenyl)-5-methyl-1H-pyrazol-3-yloxy]ethyl}piperazine carboxylate] were, in that order, 99.5% and 58.4%. The matching figures for `CC(=O)N1CCN(CCOc2cc(C)n(-c3ccc(Cl)c(Cl)c3)n2)CC1` [Example 4, 1-(4-(2-(1-(3,4-dichlorophenyl)-5-methyl-1H-pyrazol-3-yloxy)ethyl)piperazin-1-yl)ethanone]: 99.4% and 82.5%.

Turning to `CC(=O)C1CCN(CCOc2ccn(-c3ccc(Cl)c(Cl)c3)n2)CC1.O=C(O)C(=O)O` [Example 5, 1-{1-[2-(1-(3,4-Dichlorophenyl)-1H-pyrazol-3-yloxy)ethyl]piperidin-4-yl}ethanone oxalate], the melting point is 98 to 100 °C. This compound also showed a Ki on σ1-receptor of 1.3 ± 0.4 nM. `CC(=O)N1CCN(CCOc2ccn(-c3ccc(Cl)c(Cl)c3)n2)CC1.O=C(O)C(=O)O` [Example 6, 1-{4-[2-(1-(3,4-Dichlo-rophenyl)-1H-pyrazol-3-yloxy)ethyl]pipera-zin-1-yl}ethanone oxalate] gave a melting point of 206 to 210 °C. In series [1], this compound returned an analgesia of 77%. For the same compound, the affinity on σ1-receptor corresponds to a Ki of 4.2 nM. In turn, `CC(=O)C1CCN(CCOc2ccn(-c3ccc(Cl)cc3Cl)n2)CC1` [Example 7, 1-(1-[2-{1-(2.4-Dichlo-rophenyl)-1H-pyrazol-3-yloxy}ethyl]piperi-din-4-yl)ethanone oxalate] had a Ki at σ1-receptor of 1.5 nM. Regarding `CC(=O)C1CCN(CCOc2ccn(-c3ccc(Cl)cc3)n2)CC1.O=C(O)C(=O)O` [Example 8, 1-(1-(2-(1-(4-Chloro-phenyl)-1H-pyrazol-3-yloxy)ethyl)piperidin-4-yl)ethanone oxalate], the melting point lay in the range of 150 to 153 °C. Further, the affinity on σ1-receptor, expressed as Ki, was 1.3 nM. `CC(=O)C1CCN(CCOc2cc(C)n(-c3ccc(Cl)c(Cl)c3)n2)CC1.O=C(O)C(=O)O` [Example 9, 1-(1-(2-(1-(3,4-Dichlo-rophenyl)-5-methyl-1H-pyrazol-3-yloxy)ethyl)piperidin-4-yl)ethanone oxalate] came in with a melting point of 158 to 165 °C. The compound further yielded a Ki at σ1-receptor of 8.3 nM. `CC(=O)N1CCN(CCCCOc2nn(-c3ccc(Cl)c(Cl)c3)c(C)c2C)CC1.O=C(O)C(=O)O` [Example 10, 1-(4-(4-(1-(3,4-Dichlo-rophenyl)-4,5-dimethyl-1H-pyrazol-3-yloxy)butyl)piperazin-1-yl)ethanone oxalate] showed a melting point of 186 to 188 °C. `CC(=O)N1CCN(CCOc2ccn(-c3ccc(Cl)cc3Cl)n2)CC1.O=C(O)C(=O)O` [Example 11, 1-(4-(2-(1-(2,4-Dichlo-rophenyl)-1H-pyrazol-3-yloxy)ethyl)piperazin-1-yl)ethanone oxalate] came in with a melting point of 156 to 158 °C. Same read-out and setting: to `CC(=O)N1CCN(CCCCOc2cc(C)n(-c3ccc(Cl)c(Cl)c3)n2)CC1` [Example 13, 1-(4-{4-[1-(3,4-Dichloro-phenyl)-5-methyl-1H-pyrazol-3-yloxy]-butyl}-piperazin-1-yl)-ethanone] belongs 147 to 150 °C.
